Measured values from patent publication US12102642B2, “Treatment of hypercoagulopathy in Cushing's syndrome by administration of glucocorticoid receptor modulators” (Corcept Therapeutics Incorporated, priority 2018, dated 2024).
Entries after “also recorded” stand apart in the source; their conditions may differ.

Tests used:
[1] = tested on: Cushing's syndrome patients; assay: Clinical study of relacorilant in Cushing's syndrome patients (coagulation factors, inflammation markers, comorbidities); type: in vivo, human
From the text: In TABLE 1 above, the P-value is a Wilcoxon Signed Rank P-value; mean change from baseline indicates the mean change from the initial (baseline) values to the last-observed values; Factor VIII values are reported as percent of normal values; platelet counts and eosinophil counts are reported as numbers of cells per liter; APTT indicates activated partial thromboplastin time, measured in seconds; and serum osteocalcin measures levels of the vitamin K-related hormone osteocalcin outside of bone. […] Relacorilant was administered to the patients once per day for four months. Two groups of Cushing's syndrome patients received relacorilant. Group 1 received 100 milligrams per day (mg/day) which, if tolerated, was raised to 200 mg/day for the 16 weeks of the study. Group 2 received relacorilant doses according to the following schedule: the starting doses were 250 milligrams (mg) per day of relacorilant for four weeks, followed by 300 mg/day relacorilant for the next four weeks, followed by 350 mg/day relacorilant for a further four weeks, and then 400 mg relacorilant for another four weeks. […] Factor VIII and von Willebrand Factor at baseline, prior to relacorilant administration (left-most pair of columns); after four weeks of relacorilant treatment (middle pair of columns); and after 3 or 4 months of relacorilant treatment (right-most pair of columns). Factor VIII levels are reduced, as compared to baseline, at week four and after 3 or 4 months of relacorilant treatment. […] The APTT of Group 2 patients receiving relacorilant was measured at baseline (before relacorilant administration) and after 16 weeks (or following the last relacorilant administration for those patients who […] the full 16 weeks of relacorilant administration). […] Increased APTT indicates an increase in the time for blood coagulation; that is, a reduction in hypercoagulation.

[2] = tested on: Cushing's syndrome patients; conditions: see U.S. Patent Application 62/783,015; cited from earlier work
[3] = baseline to last-observed values, cells per liter
[4] = generally observed within two weeks of achieving a therapeutic dose

SMILES: Cn1cc(S(=O)(=O)N2CCC3=Cc4c(cnn4-c4ccc(F)cc4)C[C@]3(C(=O)c3cc(C(F)(F)F)ccn3)C2)cn1 [relacorilant, (R)-(1-(4-fluorophenyl)-6-((1-methyl-1H-pyrazol-4-yl)sulfonyl)-4,4a,5,6,7,8-hexahydro-1H-pyrazolo[3,4-g]isoquinolin-4a-yl)(4-(trifluoromethyl)pyridin-2-yl)methanone]
- Coagulation profile (coagulation factors, thrombin-antithrombin) compared to baseline ([1]; FIG. 2B): improved compared to baseline
- APTT compared to baseline ([1]; Group 2 patients (250 to 400 mg/day), 12 patients, after 16 weeks or last administration (FIG. 2A), p-value 0.014): increased significantly
- Von Willebrand factor levels compared to baseline ([1]; after 3 or 4 months of relacorilant treatment (FIG. 1A)): return to baseline levels
- C-Reactive protein levels compared to baseline ([1]; after 3 or 4 months of relacorilant treatment (FIG. 3)): return to baseline levels
- Factor VIII levels compared to baseline ([1]; after 3 or 4 months of relacorilant treatment, end of study (FIG. 1A)): reduced; also recorded: normalized
- Abnormally elevated coagulation factors caused by excess cortisol activity ([1]; as early as after one month of treatment): Improvement/normalization
- Von Willebrand factor levels compared to baseline ([1]; at four weeks of relacorilant treatment (FIG. 1A)): initially rise somewhat
- C-Reactive protein levels compared to baseline ([1]; at four weeks of relacorilant treatment (FIG. 3)): initially rise somewhat
- Serum Osteocalcin, Mean Change from Baseline ([1]; baseline to last-observed values): 3.00 µg/L
- Coagulopathy (APTT), Mean Change from Baseline ([1]; baseline to last-observed values, activated partial thromboplastin time): +1.45 Seconds
- Coagulopathy (Platelets), Mean Change from Baseline [1, 3]: −68.82 10^9/L
- Inflammation (eosinophils), Mean Change from Baseline [1, 3]: 0.05 10^9/L
- Coagulopathy (Factor VIII), Mean Change from Baseline ([1]; baseline to last-observed values, percent of normal values, Cushing's syndrome patients, relacorilant once per day): −18.94%
- Thromboembolic events ([1]; clinical study of 35 Cushing's syndrome patients treated with relacorilant): No thromboembolic events were observed
- Hyperglycemia [1, 4]: improvement
- Hypertension [1, 4]: improvement
- Factor VIII levels compared to baseline ([1]; week four of relacorilant treatment (FIG. 1A)): reduced
- Effect on cortisol [2]: not raising cortisol
- Risk of hypokalemia [2]: not increasing the risk of hypokalemia
